Source: ChEMBL document CHEMBL1122262, “Quantitative structure-activity relationships employing independent quantum chemical indices” (1983)

biological target: T1, Phenylethanolamine N-methyltransferase (Homo sapiens) (UniProt P11086); details: Oryctolagus cuniculus
T1 sequence (whole entry): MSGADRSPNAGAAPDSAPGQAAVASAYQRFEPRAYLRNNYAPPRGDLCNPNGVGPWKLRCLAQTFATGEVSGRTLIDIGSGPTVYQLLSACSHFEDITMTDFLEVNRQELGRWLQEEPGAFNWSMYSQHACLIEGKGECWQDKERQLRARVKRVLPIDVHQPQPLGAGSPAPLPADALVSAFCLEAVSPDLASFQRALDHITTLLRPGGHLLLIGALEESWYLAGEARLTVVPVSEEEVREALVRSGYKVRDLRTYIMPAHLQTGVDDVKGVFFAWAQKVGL
Description: Inhibition of phenylethanolamine N-methyltransferase(PNMT)activity

| SMILES | pI50 |
| --- | --- |
| NCc1ccc(Cl)cc1Cl | 4.68 |
| NCc1cccc(Cl)c1 | 5.07 |
| Cc1cccc(CN)c1C | 4.24 |
| NCc1ccccc1C(F)(F)F | 4.64 |
| Cc1ccccc1CN | 4.17 |
| NCc1cccc(F)c1 | 4 |
| Cc1cccc(CN)c1 | 3.82 |
| Cc1ccc(CN)cc1 | 3.16 |
| NCc1ccc(C(F)(F)F)cc1 | 5.2 |
| NCc1ccccc1F | 3.87 |
| NCc1cc(Cl)ccc1Cl | 4.82 |
| NCc1cccc(C(F)(F)F)c1 | 5.64 |

species: Mus musculus; test: Logarithm of effective dose evaluated using the foot-shock test in mice; format: functional; details: not given

| SMILES | Log ED50 [mM kg-1] |
| --- | --- |
| CN1C(=O)CN=C(c2ccccc2F)c2cc([N+](=O)[O-])ccc21 [FLUNITRAZEPAM] | 2.59 |
| O=C1CN=C(c2ccccc2)c2ccccc2N1 [RO-052921] | 0.37 |
| CN1C(=O)CN=C(c2ccccc2)c2cc(C#N)ccc21 | 1.74 |
| O=C1CN=C(c2ccccc2)c2cc(C(F)(F)F)ccc2N1 [RO-052904] | 1.48 |
| CN1C(=O)CN=C(c2ccccc2)c2cc([N+](=O)[O-])ccc21 [NIMETAZEPAM] | 2.07 |
| CN1C(=O)CN=C(c2ccccc2Cl)c2cc([N+](=O)[O-])ccc21 [RO-054082] | 2.12 |
| CSc1ccc2c(c1)C(c1ccccc1)=NCC(=O)N2C | 0.87 |
| CN1C(=O)CN=C(c2ccccc2F)c2cc(Cl)ccc21 [FLUDIAZEPAM] | 1.78 |
| CN1C(=O)CN=C(c2ccccc2)c2cc(Cl)ccc21 [DIAZEPAM] | 1.45 |
| CN(C)c1ccc2c(c1)C(c1ccccc1Cl)=NCC(=O)N2C | 0.61 |
| O=C1CN=C(c2ccccc2)c2cc([N+](=O)[O-])ccc2N1 [NITRAZEPAM] | 1.75 |
| CN1C(=O)CN=C(c2ccccc2C(F)(F)F)c2cc([N+](=O)[O-])ccc21 | 1.86 |
| CN1C(=O)CN=C(c2ccccc2Cl)c2cc(Cl)ccc21 | 1.5 |
| N#Cc1ccc2c(c1)C(c1ccccc1)=NCC(=O)N2 | 0.81 |
| O=C1CN=C(c2ccccc2)c2cc(F)ccc2N1 [RO-053061] | 0.4 |
| CSc1ccc2c(c1)C(c1ccccc1)=NCC(=O)N2 | 1.15 |
| CN(C)c1ccc2c(c1)C(c1ccccc1)=NCC(=O)N2C | 0.86 |
| CN1C(=O)CN=C(c2ccccc2F)c2ccccc21 [RO-054520] | 0.83 |

system: Escherichia coli; test: Logarithm of the inhibitory rate constant against Escherichia coli; format: functional; details: not given

| SMILES | Log rate constant |
| --- | --- |
| CN(C)[C@@H]1C(=O)C(C(N)=O)=C(O)[C@@]2(O)C(=O)C3=C(O)c4c(O)ccc(Cl)c4C(O)C3C[C@@H]12 (some centres undefined) | 2.71 M-1 s-1 |
| CN(C)[C@@H]1C(=O)C(C(N)=O)=C(O)[C@@]2(O)C(O)=C3C(=O)c4c(O)cccc4[C@](C)(O)C3C(=O)[C@@H]12 (some centres undefined) | 2.41 M-1 s-1 |
| CN(C)[C@@H]1C(=O)C(C(N)=O)=C(O)[C@@]2(O)C(=O)C3=C(O)c4c(ccc([N+](=O)[O-])c4O)CC3C[C@@H]12 (some centres undefined) | 1.65 M-1 s-1 |
| CN(C)c1ccc2c(c1O)C(O)=C1C(=O)[C@]3(O)C(O)=C(C(N)=O)C(=O)[C@@H](N(C)C)[C@@H]3CC1C2 (some centres undefined) | 1.37 M-1 s-1 |
| CN(C)[C@@H]1C(=O)C(C(N)=O)=C(O)[C@@]2(O)C(O)=C3C(=O)c4c(O)ccc(Cl)c4[C@](C)(O)C3C[C@@H]12 (some centres undefined) | 2.6 M-1 s-1 |
| CN(C)[C@@H]1C(=O)C(C(N)=O)=C(O)[C@@]2(O)C(=O)C3=C(O)c4c(O)ccc(N)c4CC3C[C@@H]12 (some centres undefined) | 2.26 M-1 s-1 |
| CN(C)[C@@H]1C(=O)C(C(N)=O)=C(O)[C@@]2(O)C(O)=C3C(=O)c4c(O)cccc4[C@](C)(O)C3C[C@@H]12 (some centres undefined) | 2.43 M-1 s-1 |
| CN(C)[C@@H]1C(=O)C(C(N)=O)=C(O)[C@@]2(O)C(=O)C3=C(O)c4c(ccc(N)c4O)CC3C[C@@H]12 (some centres undefined) | 2.16 M-1 s-1 |
| CN(C)[C@@H]1C(O)=C(C(N)=O)C(=O)[C@@]2(O)C(O)=C3C(=O)c4c(O)cccc4C[C@H]3C[C@@H]12 [SANCYCLINE] | 1.98 M-1 s-1 |
| CN(C)[C@@H]1C(=O)C(C(N)=O)=C(O)C2C(=O)C3=C(O)c4c(O)cccc4CC3C[C@H]21 (some centres undefined) | 0.41 M-1 s-1 |
| CN(C)[C@@H]1C(=O)C(C(N)=O)=C(O)[C@@]2(O)C(=O)C3=C(O)c4c(O)ccc(Br)c4CC3C[C@@H]12 (some centres undefined) | 1.71 M-1 s-1 |
| Cc1c2c(c(O)c3c(O)cccc13)C(=O)C1C(O)=C(C(N)=O)C(=O)[C@@H](N(C)C)[C@@H]1C2 (some centres undefined) | 1.19 M-1 s-1 |
| CN(C)[C@@H]1C(=O)C(C(N)=O)=C(O)[C@@]2(O)C(=O)C3=C(O)c4c(O)ccc([N+](=O)[O-])c4CC3C[C@@H]12 (some centres undefined) | 2.87 M-1 s-1 |
| CN(C)[C@@H]1C(=O)C(C(N)=O)=C(O)C2C(O)C3=C(C[C@H]21)[C@@](C)(O)c1c(Cl)ccc(O)c1C3=O (some centres undefined) | -0.47 M-1 s-1 |
